# Literature values as cited in patent US5321022A, “Compositions for percutaneous administration” (Kanebo, Ltd., priority 1989, dated 1994).
# Details: cf: U.S. Pat. No. 4430343
smiles,measurement,value
"CCOCCn1c(N2CCCN(C)CC2)nc2ccccc21 [emedastine, 1-(2-Ethoxyethyl)-2-(hexahydro-4-methyl-1H-1,4-diazepin-1-yl)-1H-benzimidazole]",antihistaminic activity (in words),strong antihistaminic activity
